Data published in patent US20100069316A1, “TREATMENT FOR MULTIPLE MYELOMA” (Ares Trading S.A., priority 2006, published 2010).
Like-named read-outs stand apart in the source and are kept apart here.

Experiments:
[1] = tested on: 14 myeloma cell lines; assay: Cell proliferation assay (tritiated thymidine incorporation), panel of myeloma cell lines; format: cell-based; settings: 14 human myeloma cell lines, 0.04-10 μM, 4 days culture
Procedure: Myeloma cell lines were passaged every 3-4 days in RPMI640 and 10% fetal calf serum (FCS). For the IL-6 dependent cell lines, 2 ng/ml of freshly thawed IL-6 (Abcys, France) was added at the beginning of the culture. Each cell line has unique phenotypic and HLA characteristics that make it possible to periodically check their identity.
The following cell lines were obtained in B. Klein's laboratory: XG-1, XG-2, XG-3, XG-4, XG-6, XG-7, XG-11, XG-12, XG-13, XG-14, XG-19, XG-20. (Zhang, et al., 1994; Rebouissou, et al., 1998)
RPMI8226 and L363 cell lines were purchased from ATCC.
Myeloma cells were harvested in the exponential growth phase (at day 3 after culture passage when the cell concentration is around 5×10^5 cells/ml). Cells were washed twice, cultured for 3 hours in RPMI1640 and 10% FCS, washed twice. This makes it possible to remove cell-bound growth factors (in particular recombinant IL-6). […]
Cells were cultured for 4 days. […] Cells were then extracted with a cell collector and the thymidine incorporation was determined using a beta cell counter.
For each experiment, the mean tritiated thymidine incorporations (mean values determined on three culture wells) were plotted against the logarithmic concentrations of the compound. The curves were fitted with exponential regression, which was determined using the concentrations defining the inhibition response (usually 3-4 concentrations). […]

[2] = tested on: 10 myeloma cell lines; assay: Cell proliferation assay, mean over 10 myeloma cell lines; format: cell-based, human; settings: mean determined on 10 myeloma cell lines
Procedure: (§1) Myeloma cells were harvested in the exponential growth phase (at day 3 after culture passage when the cell concentration is around 5×10^5 cells/ml). Cells were washed twice, cultured for 3 hours in RPMI1640 and 10% FCS, washed twice. This makes it possible to remove cell-bound growth factors (in particular recombinant IL-6). Then cells are plated in 96-well flat-bottomed microplates at various concentrations depending on their doubling time: • 5×10^3 cells/well in 100 μl for the cell lines: XG-1, XG-7 • 10^4 cells/well in […] for the cell lines: XG-2, XG-4, XG-6, XG-11, PRMI8226, L363 • 2×10^4 cells/well in 100 μl for the cell lines: XG-3, XG-12, XG-13, XG-14, XG-19, XG-20
(§2) The culture medium used were: • PRMI1640, 10% FCS and 0.5 ng/ml of IL-6 for XG-1, XG-2, XG-3, XG-4, XG-6, XG-7, XG-11, XG-12, XG-13, XG-19, XG-20 cells • X-VIVO20 and 0.5 ng/ml IL-6 for XG-14 cells • PRMI1640 and 10% FCS for RPMI8226 and L363 cells
(§3) The diluted compounds, DMSO or control culture medium were added in 100 μl at the start of the culture. Three culture wells were done for one compound dilution and the experiments were done twice (finally six culture wells for one compound dilution).
(§4) Cells were cultured for 4 days. Eight hours before the end of the culture, 0.5 μCi of tritiated thymidine were added in 50 μl of RPMI1640 and 10% FCS. Cells were then extracted with a cell collector and the thymidine incorporation was determined using a beta cell counter.
(§5) For each experiment, the mean tritiated thymidine incorporations (mean values determined on three culture wells) were plotted against the logarithmic concentrations of the compound. The curves were fitted with exponential regression, which was determined using the concentrations defining the inhibition response (usually 3-4 concentrations).
(§6) The concentrations yielding 50% and 90% inhibition of the proliferation of myeloma cells were determined with these regression curves.

[3] = tested on: XG-3 myeloma cell line; assay: Cell numeration, XG-3; format: cell-based, human; settings: day 3 of culture
Procedure: Two myeloma cell lines (XG-3 and XG-12) that are sensitive to compound A (1-(4-{4-[4-(4-chlorophenyl)-pyrimidin-2-ylamino]-benzoyl}-piperazin-1-yl)-ethanone) were selected for the study. To assess the effect of compound A on myeloma cell survival, the percentage apoptotic cells was determined using binding of annexin V to apoptotic cells. The effect of compound A on the cell cycle was assessed by evaluating the percentage of cells in the S phase of the cell cycle by incorporation of BrdU-FITC. Apoptosis, cell cycle and cell numeration were evaluated daily on a four day culture period on the cell lines using the IC10, IC50 and I90 respective doses of compound A.

[4] = tested on: L363 myeloma cell line; assay: Cell proliferation assay (tritiated thymidine incorporation), L363; format: cell-based, human; settings: alone or with fixed Velcade/Melphalan; for IC50: concentration of compound A yielding 50% inhibition of proliferation, read-out: IC50; for IC90: concentration of compound A yielding 90% inhibition of proliferation
Procedure: as §1, §2, §3, §4, §5, §6
The concentration yielding 10% (IC10) or 50% (IC50) inhibition of the myeloma cell lines were determined and the data are listed in Table 2.
Compound A was tested in combination with melphalan or Velcade. Increasing concentration of compound A (0, 0.01, 0.03, 0.12, 0.37, 1.1, 3.1, 10, 30 μM) were applied on 4 myeloma cell lines alone or in combination with Velcade or melphalan at concentration yielding around 10% or 50% inhibition.

IC50 ([2]; Homo sapiens, read-out: mean concentration yielding 50% inhibition): 3.3 µM | IC50 ([4]; Homo sapiens, L-363, L363): 2.33 µM | IC90 ([4]; Homo sapiens, L-363, L363): 10.1 µM | IC50 ([4]; L363): 1.79 µM | IC90 ([4]; L363): 9.41 µM
SMILES: CC(=O)N1CCN(C(=O)c2ccc(Nc3nccc(-c4ccc(Cl)cc4)n3)cc2)CC1 [Compound A, 1-(4-{4-[4-(4-Chloro-phenyl)-pyrimidin-2-ylamino]-benzoyl}-piperazin-1-yl)-ethanone]
inhibition of the proliferation of myeloma cell lines [1]: full inhibition of the proliferation of 13 out 14 human myeloma cells | mean concentration yielding 10% inhibition [2]: 1 µM | mean concentration yielding 90% inhibition [2]: 10 µM | Cells (×10^6/ml) cell counts ([3]; XG-3, compound A at IC10 concentration): 0.68 ×10^6/ml | Cells (×10^6/ml) cell counts ([3]; XG-3, compound A at IC50 concentration): 0.47 ×10^6/ml | Cells (×10^6/ml) cell counts ([3]; XG-3, compound A at IC90 concentration): 0.29 ×10^6/ml
